Source: ChEMBL document CHEMBL1201862, “PubChem BioAssay data set” (2004)
Calls of active or inactive are those of the source.

Legend:
[1] = target: T1, Corticotropin-releasing factor receptor 2/Corticotropin-releasing factor-binding protein (Homo sapiens, UniProt P24387+Q13324); test: activators of CRF receptor 2 with binding protein – uHTS hits, confirmation (AID 602473); assay type: functional; details: read-out: EC50_Mean
T1 sequence (Q13324 whole entry): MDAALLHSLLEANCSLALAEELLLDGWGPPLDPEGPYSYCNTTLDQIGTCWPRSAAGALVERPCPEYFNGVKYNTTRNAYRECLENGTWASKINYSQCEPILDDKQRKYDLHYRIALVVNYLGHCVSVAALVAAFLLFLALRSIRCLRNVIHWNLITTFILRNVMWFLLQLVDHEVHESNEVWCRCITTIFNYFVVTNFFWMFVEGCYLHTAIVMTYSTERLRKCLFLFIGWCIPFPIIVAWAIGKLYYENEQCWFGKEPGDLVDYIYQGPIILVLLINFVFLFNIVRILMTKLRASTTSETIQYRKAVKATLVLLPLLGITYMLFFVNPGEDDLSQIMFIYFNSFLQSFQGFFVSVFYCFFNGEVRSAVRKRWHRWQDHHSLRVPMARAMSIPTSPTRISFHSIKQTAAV
T1 sequence (P24387 whole entry): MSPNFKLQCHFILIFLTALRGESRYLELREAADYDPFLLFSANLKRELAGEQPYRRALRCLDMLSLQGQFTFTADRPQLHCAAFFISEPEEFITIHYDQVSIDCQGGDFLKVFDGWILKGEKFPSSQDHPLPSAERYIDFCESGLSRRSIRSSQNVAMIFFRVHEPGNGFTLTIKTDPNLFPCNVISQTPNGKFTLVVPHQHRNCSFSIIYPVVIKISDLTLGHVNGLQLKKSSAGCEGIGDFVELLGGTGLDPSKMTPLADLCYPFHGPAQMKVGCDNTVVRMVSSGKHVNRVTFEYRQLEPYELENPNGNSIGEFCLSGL

[2] = target: T1, Corticotropin-releasing factor receptor 2/Corticotropin-releasing factor-binding protein; test: Dose Response confirmation of uHTS hits for small molecule antagonists of the CRF-binding protein and CRF-R2 receptor complex.; assay type: functional; details: read-out: IC50_Mean
[3] = target: FAD-linked sulfhydryl oxidase ALR (Homo sapiens, UniProt P55789); test: inhibitors of human ALR sulfhydryl oxidase, dose response, biochemical, H2O2 detection, luminescence, cherry-pick (AID 493248)
[4] = NIH-3T3 fibroblast cytotoxicity, dose response, cytotoxicity control, cell-based, fluorescence, Alamar Blue, secondary assay (AID 2327); assay type: functional;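 also: NIH-3T3 mouse fibroblasts cultured with fluconazole at 8 µg/mL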
[5] = growth suppression of beta-catenin-knockout colon cells, dose response, cell-based, HCT116, human colon tumor (AID 1045); assay type: functional;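 also: HCT116 colon tumor cells with beta catenin knocked out; cells exposed to compound for 60 hours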
[6] = growth suppression of PTEN-null colon cells, dose response, cell-based, HCT116 PTEN knockout (AID 1047); assay type: functional;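 also: HCT116 colon tumor cells with PTEN knocked out; cells exposed to compound for 60 hours before readout; potency for loss of cell viability measured by luminescence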
[7] = target: T2, Heat shock factor protein 1 (Mus musculus, UniProt P38532); test: inhibition of MG132-induced HSE-luciferase signal, confirmation, cell-based, NIH3T3, luminescence, dose retest (AID 2382); assay type: functional;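 also: NIH3T3 fibroblasts with HSF1-driven luciferase reporter stressed by proteasome inhibitor MG132; luminescence from HSF1-driven luciferase expression after 8 hours of MG132 stress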
T2 sequence (P38532 whole entry): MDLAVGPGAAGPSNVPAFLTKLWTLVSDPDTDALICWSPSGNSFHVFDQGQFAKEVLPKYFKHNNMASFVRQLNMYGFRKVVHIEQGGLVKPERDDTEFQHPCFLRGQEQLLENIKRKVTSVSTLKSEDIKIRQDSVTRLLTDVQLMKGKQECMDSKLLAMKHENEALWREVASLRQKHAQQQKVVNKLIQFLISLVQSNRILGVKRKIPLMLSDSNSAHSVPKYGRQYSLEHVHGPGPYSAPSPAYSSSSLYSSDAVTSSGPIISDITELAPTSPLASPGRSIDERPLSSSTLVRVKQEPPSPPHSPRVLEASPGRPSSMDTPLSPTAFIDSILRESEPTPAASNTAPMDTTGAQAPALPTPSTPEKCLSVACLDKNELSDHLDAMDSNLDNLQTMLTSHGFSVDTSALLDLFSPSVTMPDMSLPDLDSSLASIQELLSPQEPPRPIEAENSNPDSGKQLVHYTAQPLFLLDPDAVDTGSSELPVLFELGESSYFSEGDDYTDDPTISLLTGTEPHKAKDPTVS

[8] = target: Cytochrome P450 2C9 (Homo sapiens, UniProt P11712)
[9] = target: Cytochrome P450 3A4 (Homo sapiens, UniProt P08684);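 also: CYP3A4 tested as one member of a cytochrome P450 panel screen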
[10] = target: Cytochrome P450 2C19 (Homo sapiens, UniProt P33261); test: Cytochrome panel assay with activity outcomes. Panel member name: p450-cyp2c19 Compounds with AC50 equal or less than 10 uM are considered active; assay type: functional; details: read-out: AC50
[11] = tested on: H9c2; test: cells; assay type: functional, cell-based; details: Rattus norvegicus, H9c2, Myocardium;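 also: confirmatory concentration-response retest of ultra-high-throughput screening hits for modulation of myocardial damage; cell death induced by hydrogen peroxide oxidative stress; compound pretreatment for 60 min then peroxide exposure for 2 h; potency is for protecting the cells against peroxide damage rather than for killing them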
[12] = HEp-2 cell cytotoxicity, dose response, cytotoxicity control for RSV inhibitor project, HTS (AID 2410); assay type: functional; details: human respiratory syncytial virus
[13] = target: T3, Rac GTPase-activating protein 1 (Homo sapiens, UniProt Q9H0H5); test: MgcRacGAP GTPase-activating activity inhibitors, confirmation, biochemical, ADP Hunter fluorescence, primary and confirmatory (AID 624330); assay type: functional
T3 sequence (Q9H0H5 whole entry): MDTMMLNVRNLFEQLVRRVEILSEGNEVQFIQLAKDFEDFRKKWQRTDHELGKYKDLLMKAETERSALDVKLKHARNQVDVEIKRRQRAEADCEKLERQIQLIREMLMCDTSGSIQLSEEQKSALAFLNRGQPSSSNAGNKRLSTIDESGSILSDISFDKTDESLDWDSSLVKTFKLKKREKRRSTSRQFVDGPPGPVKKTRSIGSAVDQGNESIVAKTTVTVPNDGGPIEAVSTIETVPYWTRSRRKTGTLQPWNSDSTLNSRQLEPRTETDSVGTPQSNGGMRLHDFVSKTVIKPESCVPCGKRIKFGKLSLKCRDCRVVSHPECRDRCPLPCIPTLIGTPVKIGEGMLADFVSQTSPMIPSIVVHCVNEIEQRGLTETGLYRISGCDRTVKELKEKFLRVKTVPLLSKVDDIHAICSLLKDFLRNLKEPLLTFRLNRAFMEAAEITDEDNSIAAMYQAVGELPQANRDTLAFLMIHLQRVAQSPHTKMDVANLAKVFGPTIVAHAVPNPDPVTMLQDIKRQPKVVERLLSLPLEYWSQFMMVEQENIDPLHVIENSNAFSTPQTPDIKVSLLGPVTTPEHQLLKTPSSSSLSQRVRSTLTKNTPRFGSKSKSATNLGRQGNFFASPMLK

[14] = tested on: INS1; test: beta cell apoptosis inhibitors, cytokine rescue, dose response, luminescence, retest (AID 449756); assay type: functional, cell-based; details: Rattus norvegicus;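 also: cell death triggered by IL-1 beta plus TNF-alpha plus IFN-gamma mixture; protective hits raise ATP signal compared with cytokine alone wells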

FAD-linked sulfhydryl oxidase ALR, sequence (P55789 whole entry): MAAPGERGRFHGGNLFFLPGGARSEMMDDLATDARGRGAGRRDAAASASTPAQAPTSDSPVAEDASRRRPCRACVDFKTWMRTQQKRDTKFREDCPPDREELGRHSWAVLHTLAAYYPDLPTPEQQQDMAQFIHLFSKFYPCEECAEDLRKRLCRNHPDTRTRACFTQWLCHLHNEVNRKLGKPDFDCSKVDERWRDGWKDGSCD
Cytochrome P450 3A4, sequence (P08684 whole entry): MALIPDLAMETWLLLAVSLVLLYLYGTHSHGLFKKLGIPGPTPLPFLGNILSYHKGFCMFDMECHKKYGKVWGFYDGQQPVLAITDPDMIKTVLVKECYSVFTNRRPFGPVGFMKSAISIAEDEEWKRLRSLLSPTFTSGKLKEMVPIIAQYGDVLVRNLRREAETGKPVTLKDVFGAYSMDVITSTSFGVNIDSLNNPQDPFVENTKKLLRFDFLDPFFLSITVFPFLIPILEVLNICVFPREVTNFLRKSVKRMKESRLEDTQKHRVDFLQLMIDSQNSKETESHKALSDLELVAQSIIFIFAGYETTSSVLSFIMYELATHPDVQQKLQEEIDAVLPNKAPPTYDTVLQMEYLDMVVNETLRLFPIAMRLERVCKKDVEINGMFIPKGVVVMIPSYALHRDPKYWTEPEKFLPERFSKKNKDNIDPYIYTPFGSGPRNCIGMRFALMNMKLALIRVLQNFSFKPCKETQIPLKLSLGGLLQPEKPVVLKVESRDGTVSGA
Cytochrome P450 2C9, sequence (P11712 whole entry): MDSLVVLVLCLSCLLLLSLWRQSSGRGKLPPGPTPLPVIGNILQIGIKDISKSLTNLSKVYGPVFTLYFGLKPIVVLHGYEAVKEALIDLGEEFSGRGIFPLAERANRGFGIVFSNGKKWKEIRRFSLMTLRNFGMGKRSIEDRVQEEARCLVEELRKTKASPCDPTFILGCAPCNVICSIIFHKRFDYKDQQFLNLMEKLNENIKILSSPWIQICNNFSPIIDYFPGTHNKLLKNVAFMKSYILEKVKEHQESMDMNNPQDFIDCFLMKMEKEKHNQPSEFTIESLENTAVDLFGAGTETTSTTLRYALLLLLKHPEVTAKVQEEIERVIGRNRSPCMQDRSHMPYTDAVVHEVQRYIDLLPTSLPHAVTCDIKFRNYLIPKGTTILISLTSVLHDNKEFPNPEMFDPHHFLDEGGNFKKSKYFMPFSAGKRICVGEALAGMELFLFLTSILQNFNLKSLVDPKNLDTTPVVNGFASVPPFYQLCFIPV
Cytochrome P450 2C19, sequence (P33261 whole entry): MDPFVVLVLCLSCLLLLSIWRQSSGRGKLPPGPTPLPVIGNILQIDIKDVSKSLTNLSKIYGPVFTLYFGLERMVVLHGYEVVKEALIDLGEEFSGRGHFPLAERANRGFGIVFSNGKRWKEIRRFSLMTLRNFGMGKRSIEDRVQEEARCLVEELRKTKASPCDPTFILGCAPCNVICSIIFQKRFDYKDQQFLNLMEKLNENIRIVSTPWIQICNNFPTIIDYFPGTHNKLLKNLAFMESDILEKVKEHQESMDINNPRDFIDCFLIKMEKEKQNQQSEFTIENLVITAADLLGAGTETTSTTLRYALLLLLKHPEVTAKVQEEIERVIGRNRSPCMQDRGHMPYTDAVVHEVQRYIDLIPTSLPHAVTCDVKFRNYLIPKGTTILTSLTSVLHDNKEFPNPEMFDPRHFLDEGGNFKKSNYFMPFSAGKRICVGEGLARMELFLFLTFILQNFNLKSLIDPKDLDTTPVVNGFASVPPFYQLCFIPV

| EC50 [1] | IC50 [2] | AC50 [3] | Compound | further results |
| --- | --- | --- | --- | --- |
| > 53 µM (inactive) | > 47.1 µM (inactive) | – | Cc1noc(C)c1S(=O)(=O)N1CCC(C(=O)N2CCN(c3ccc(F)cc3)CC2)CC1 | – |
| – | – | 0.154 µM (active) | COc1cc(OC)cc(C(=O)N2CCN=C2SCc2cccnc2)c1 | – |
| – | – | 3.29 µM (active) | Cc1nc(SCc2ccc(C(=O)O)cc2)nc2c1CCCC2 | – |
| – | – | 6.65 µM (active) | COc1ccc(NC(=O)CC2C(=O)Nc3ccccc3N2CC(=O)N2CCCC2)cc1 (stereo not drawn) | – |
| > 53 µM (inactive) | > 47.1 µM (inactive) | – | COc1ccc(C(C)=O)cc1CSc1nnc2c(Cl)cc(Cl)cn12 | – |
| > 53 µM (inactive) | > 47.1 µM (inactive) | – | O=C(Nc1ccccc1N1CCCCC1)C1CCN(C(=O)c2ccc(Cl)cc2)CC1 | EC50 [7]: > 195 µM (not active) |
| > 53 µM (inactive) | > 47.1 µM (inactive) | – | CC(C)c1ccc(NC(=S)NN2CCOCC2)cc1 | – |
| > 53 µM (inactive) | > 47.1 µM (inactive) | – | Cc1ccccc1CNC(=O)Nc1cccs1 | – |
| > 53 µM (inactive) | > 47.1 µM (inactive) | – | Cc1ccc(CNC(=O)CN(c2ccc(C)cc2)S(=O)(=O)c2c(C)nn(C)c2C)cc1 | – |
| > 53 µM (inactive) | > 47.1 µM (inactive) | – | Cc1ccc(S(=O)(=O)CCC(=O)Nc2cc(Cl)ccc2-n2cncn2)cc1 | – |
| – | – | 0.675 µM (active) | CC1(c2ccccc2)NC(=O)N(CC(=O)Nc2ccc(S(=O)(=O)Nc3ncccn3)cc2)C1=O (stereo not drawn) | – |
| – | – | 0.273 µM (active) | CC(=O)NC(C)C(c1cccs1)N1CCN(c2ccccc2)CC1 (stereo not drawn) | AC50 [8]: 11.2 µM (inconclusive); AC50 [9]: 39.8 µM (inconclusive); AC50 [10]: 3.98 µM (inconclusive) |
| > 53 µM (inactive) | > 47.1 µM (inactive) | – | CC(=O)N1N=C(C)CC1c1ccc(OCc2ccccc2)cc1 (stereo not drawn) | – |
| > 53 µM (inactive) | > 47.1 µM (inactive) | – | Cn1c(=O)oc2cc(S(=O)(=O)NCCC(=O)NCc3ccc(F)cc3)ccc21 | – |
| > 53 µM (inactive) | > 47.1 µM (inactive) | – | C=CCn1c(SCc2ccc(F)cc2)nc2c1c(=O)[nH]c(=O)n2C | – |
| > 53 µM (inactive) | > 47.1 µM (inactive) | – | Cc1ccc(-c2nn(C)c(=O)c3ccccc23)cc1CO | – |
| > 53 µM (inactive) | > 47.1 µM (inactive) | – | Cc1nnc(SCC(=O)N(C)c2c(N)n(Cc3ccccc3)c(=O)[nH]c2=O)n1Cc1ccccc1 | – |
| – | – | 1.55 µM (active) | CCN1C(=O)c2cccc3c(S(=O)(=O)Nc4ccc(O)c(C(=O)O)c4)ccc1c23 | – |
| – | – | 3.7 µM (active) | O=C1CCC(C(=O)Nc2ccccc2N2CCCC2)=NN1 | – |
| > 53 µM (inactive) | > 47.1 µM (inactive) | – | CC(=O)C1=C(C)N=C(S)NC1c1cc([N+](=O)[O-])ccc1O (stereo not drawn) | – |
| – | – | 3.71 µM (active) | COc1cccc(/C=N/NC(=O)NC2CCCCC2)c1O | – |
| – | – | 0.408 µM (active) | COc1cc(/C=N/NC(=O)c2cc(-c3ccc4c(c3)OCO4)[nH]n2)ccc1O | – |
| – | – | 2.35 µM (active) | O=C(CN1CCCc2ccccc21)N/N=C/c1ccc(O)cc1O | – |
| – | – | 0.107 µM (active) | C/C(=N\NC(=O)c1ccc(N/N=C(\C)c2ccncc2)cc1)c1ccncc1 | – |

The remaining lines, values behind:

| Compound | EC50 [1] | IC50 [2] | AC50 [3] | further results |
| --- | --- | --- | --- | --- |
| COc1ccc(C2=CSC3=NNC4(CCCCC4)NN23)cc1 | – | – | 1.42 µM (active) | EC50 [4]: 38.8 µM (active) |
| CCCCc1ccc(C2C3=C(CC(C)(C)CC3=O)N=C3C2=C(O)c2ccccc23)cc1 (stereo not drawn) | – | – | – | EC50 [5]: 18.2 µM (active); EC50 [6]: 13.2 µM (active) |
| O=C(COc1ccccc1F)N1CCN(CCN2C(=O)c3cccc4cccc(c34)C2=O)CC1 | > 53 µM (inactive) | > 47.1 µM (inactive) | – | – |
| C#CCN1C(=O)C(O)(CC(=O)c2ccc(OC)c(OC)c2)c2ccccc21 (stereo not drawn) | – | – | – | EC50 [5]: 21.2 µM (active); EC50 [6]: 18 µM (active) |
| CC(=O)Oc1cc2oc(=O)cc(C)c2cc1Cl | – | – | 2.62 µM (active) | – |
| COc1ccc(-c2cc(C(F)(F)F)c(C#N)c(SCC(=O)Nc3nc(C)co3)n2)cc1 | – | – | – | EC50 [5]: 9.24 µM (active); EC50 [6]: 10.9 µM (active) |
| Cc1ccc(-n2nc3ccc(NC(=O)/C=C/c4ccco4)cc3n2)cc1C | – | – | – | EC50 [5]: 11.7 µM (active); EC50 [6]: 8.83 µM (active) |
| O=C(CN1CCN(C(=O)c2ccco2)CC1)Nc1c2c(nc3c1CCC3)CCCC2 | > 53 µM (inactive) | > 47.1 µM (inactive) | – | – |
| Cc1nc2cc(N3CCCCC3)c(NC(=O)c3ccncc3)cc2c(=O)n1Cc1ccc(Cl)cc1 | – | – | – | EC50 [5]: 3.8 µM (active); EC50 [6]: 3.49 µM (active) |
| COc1cc(/C=C(\C#N)c2nc3ccccc3[nH]2)cc(Br)c1OCc1ccccc1 | – | – | – | EC50 [5]: 16.7 µM (active); EC50 [6]: 15.8 µM (active) |
| CC(=O)c1cccc(Nc2nc3ccccc3n3cnnc23)c1 | > 53 µM (inactive) | < 0.368 µM (active) | – | IC50 [11]: > 79 µM (inactive); CC50 [12]: 43.9 µM (active) |
| COc1ccc(C2NC(=O)CS2)cc1OC (stereo not drawn) | – | – | 0.093 µM (active) | – |
| COc1cc(CNc2ccc(C)c(C)c2)cc(OC)c1OC | – | – | 9.13 µM (active) | – |
| CCC(C)C(=O)Nc1nnc(SCC(=O)NC(C)(C)C)s1 (stereo not drawn) | > 53 µM (inactive) | > 47.1 µM (inactive) | – | – |
| CCCN(CCC)S(=O)(=O)c1ccc(C(=O)Nc2nnc(CSC)o2)cc1 | – | – | – | EC50 [5]: 12.7 µM (active); EC50 [6]: 14.2 µM (active) |
| CCOC(=O)c1c(Nc2ccc(Cl)cc2)sc(/C=C2\C=Nc3ccccc32)c1O | – | – | – | EC50 [5]: 6.74 µM (active); EC50 [6]: 6.61 µM (active) |
| CCN(CC)c1ccc(/C=N/Nc2nc(C)cc(C)n2)c(O)c1 | – | – | – | IC50 [13]: 62.8 µM (active); AC50 [14]: 2.84 µM (active) |
| COc1cccc(C(=O)N/N=C/C(Br)=C/c2ccccc2)c1 | – | – | – | EC50 [5]: 6.47 µM (active); EC50 [6]: 6.24 µM (active) |
| COc1cc(/C=N/Nc2cc(C)nc(NS(=O)(=O)c3ccccc3)n2)ccc1O | – | – | – | IC50 [13]: 37.8 µM (active) |
| CCN(CC)c1ccc(NC(=O)COC(=O)CCc2cc(OC)c(OC)c(OC)c2)cc1 | – | – | – | IC50 [13]: 81.1 µM (active) |
